Source: patent publication US20250313559A1 (Bayer Aktiengesellschaft, priority 2024, published 2025)
Where two headings read alike, the source gives them in different places.

Tests used:
[1] = tested on: patients with heart failure and a left ventricular ejection fraction ≥40%
[2] = cited from earlier work
[3] = tested on: natriuretic peptide levels; details: ARTS-HF trial, phase 2; cited from earlier work
[4] = tested on: patients across cardio-kidney-metabolic disease states
[5] = FINE-HEART pooled safety population, finerenone n = 9,482, treatment-emergent
[6] = FINE-HEART pooled safety population, n = 9,482
[7] = FINE-HEART pooled, n = 9,482, investigator reported adverse events

## CCOc1ncc(C)c2c1[C@H](c1ccc(C#N)cc1OC)C(C(N)=O)=C(C)N2 [finerenone, (4S)-4-(4-cyano-2-methoxyphenyl)-5-ethoxy-2,8-dimethyl-1,4-dihydro-1,6-naphthyridine-3-carboxamide]
[1]; finerenone group
  First worsening heart failure event or death from cardiovascular causes - %: (20.8%)
  Improvement in NYHA class from baseline to 12 mo - %: (18.6%)
  Kidney composite outcome - %: (2.5%)
[1]; finerenone group N = 3,003
  Death from cardiovascular causes - %: (8.1%)
[1]; n = 2,993
  Number of subjects with AE of death or leading to death: COVID-19: 7
  Number of subjects with AE of death or leading to death: COVID-19 pneumonia: 9
  Number of subjects with AE of death or leading to death: Cardiac arrest: 12
  Number of subjects with AE of death or leading to death: Cardiac failure: 6
  Number of subjects with AE of death or leading to death: Death: 70
  Number of subjects with AE of death or leading to death: Lung neoplasm malignant: 7
  Number of subjects with AE of death or leading to death: Pneumonia: 27
  Number of subjects with AE of death or leading to death: Respiratory failure: 7
  Number of subjects with AE of death or leading to death: Sepsis: 19
  Number of subjects with AE of death or leading to death: Septic shock: 12
  Number of subjects with AE of death or leading to death: Sudden cardiac death: 18
  Number of subjects with AE of death or leading to death: Sudden death: 20
  Number of subjects with a treatment-emergent SAE: COVID-19: 69
  Number of subjects with a treatment-emergent SAE: COVID-19 pneumonia: 28
  Number of subjects with a treatment-emergent SAE: Death: 29
  Number of subjects with a treatment-emergent SAE: Sepsis: 25
  Number of subjects with a treatment-emergent SAE: Sudden death: 16
  Number of subjects with a treatment-emergent SAE: Urinary tract infection: 29
  Subjects with AE of death or leading to death (%): COVID-19: (0.2%)
  Subjects with AE of death or leading to death (%): COVID-19 pneumonia: (0.3%)
  Subjects with AE of death or leading to death (%): Cardiac arrest: (0.4%)
  Subjects with AE of death or leading to death (%): Cardiac failure: (0.2%)
  Subjects with AE of death or leading to death (%): Death: (2.3%)
  Subjects with AE of death or leading to death (%): Lung neoplasm malignant: (0.2%)
  Subjects with AE of death or leading to death (%): Pneumonia: (0.9%)
  Subjects with AE of death or leading to death (%): Respiratory failure: (0.2%)
  Subjects with AE of death or leading to death (%): Sepsis: (0.6%)
  Subjects with AE of death or leading to death (%): Septic shock: (0.4%)
  Subjects with AE of death or leading to death (%): Sudden cardiac death: (0.6%)
  Subjects with AE of death or leading to death (%): Sudden death: (0.7%)
  Subjects with a treatment-emergent SAE (%): COVID-19: 2.3%
  Subjects with a treatment-emergent SAE (%): COVID-19 pneumonia: 0.9%
  Subjects with a treatment-emergent SAE (%): Death: 1.0%
  Subjects with a treatment-emergent SAE (%): Sepsis: 0.8%
  Subjects with a treatment-emergent SAE (%): Sudden death: 0.5%
  Subjects with a treatment-emergent SAE (%): Urinary tract infection: 1.0%
[1]; through the end of study
  Hyperkalemia leading to Death - %: (0%)
  Hyperkalemia leading to Death - no.: 0
[1]; treatment emergent
  Hyperkalemia leading to Death - %: (0%)
  Hyperkalemia leading to Death - no.: 0
[2]; compared with steroidal mineralocorticoid receptor antagonists
  tissue distribution between the heart and kidney: more balanced
[2]; in vivo
  renal elimination: less than 1%
[3]
  treatment effects on natriuretic peptide levels: dose dependent
[4]; FINE-HEART pooled safety population, finerenone n = 9,482
  Any adverse event leading to treatment discontinuation, % of patients: (5.4%)
[4]; [5]
  Any serious adverse event, % of patients: (34.6%)
  Any serious adverse event, number of patients: 3,283
[4]; [6]
  Acute kidney injury leading to hospitalization, % of patients: (1.5%)
  Acute kidney injury leading to hospitalization, number of patients: 143
  Acute kidney injury leading to treatment discontinuation, % of patients: (0.2%)
  Acute kidney injury leading to treatment discontinuation, number of patients: 15
  Acute kidney injury, % of patients: (3.6%)
  Gynecomastia or breast hyperplasia, % of patients: (0.2%)
  Gynecomastia or breast hyperplasia, number of patients: 16
  Systolic blood pressure<100 mmHg, % of patients: (11.1%)
  Systolic blood pressure<100 mmHg, number of patients: 1,040
[4]; FINE-HEART pooled, n = 9,482, central laboratory measurements
  Any potassium >6.0 mmol/L, % of patients: (3.3%)
[4]; [7]
  Hyperkalemia leading to death, % of patients: (0.0%)
  Hyperkalemia leading to death, number of patients: 0
  Hyperkalemia leading to hospitalization, % of patients: (0.8%)
  Hyperkalemia leading to hospitalization, number of patients: 80
  Hyperkalemia leading to treatment discontinuation, % of patients: (1.3%)
  Hyperkalemia, % of patients: (12.8%)
  Hyperkalemia, number of patients: 1,216
